target: Stromelysin (Homo sapiens, UniProt P08254); test: MMP (stromelysin) inhibition, particle concentration fluorescence assay; format: biochemical; conditions: in vitro; fluorescein/biotin substrate; MMP buffer pH 7.5; room temperature; 15 minutes preincubation, 1-3 hours; read-out: Stromelysin Ki (MMP Inhibition Constants)
Sequence (P08254 100-477): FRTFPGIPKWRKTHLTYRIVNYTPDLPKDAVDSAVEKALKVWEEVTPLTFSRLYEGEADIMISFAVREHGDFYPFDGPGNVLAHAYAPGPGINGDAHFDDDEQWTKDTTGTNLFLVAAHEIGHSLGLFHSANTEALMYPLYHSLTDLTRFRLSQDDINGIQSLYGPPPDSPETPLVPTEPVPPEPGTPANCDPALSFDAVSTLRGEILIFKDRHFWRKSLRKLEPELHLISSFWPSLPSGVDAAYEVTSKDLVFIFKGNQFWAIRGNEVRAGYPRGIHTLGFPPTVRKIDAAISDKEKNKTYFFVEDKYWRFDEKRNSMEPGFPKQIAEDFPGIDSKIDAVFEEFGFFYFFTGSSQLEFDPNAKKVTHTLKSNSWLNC
Method: Inhibitory activity is evaluated in one or more of the MMP enzymes (stromelysin, gelatinase, and collagenase) in vitro using particle concentration fluorescence assay. An inhibitor binds to MMP enzymes which prevents the degradation of a substrate by stromelysin, gelatinase, or collagenase. The substrate has attached to it a fluorescein and a biotin moiety. The intact substrate then binds to an avidin-coated particle via the biotin moiety. Once the particle is washed and dried, a fluorescent signal is generated since the fluorescent group is attached to the particle. Without an inhibitor present, the substrate is degraded by MMP enzymes and the fluorescein group is removed, therefore, no fluorescent signal can be detected. Testing compounds are dissolved in DMSO to the desired concentration, then the solutions are diluted to 1:5 with MMP buffer (50 mM Tris-HCl, pH 7.5; 150 mM NaCl; 0.02% NaN3). Serial two-fold dilutions of each compound are prepared. A concentrated, activated enzyme solution is transferred into each plate of the testing compounds, and the mixture is incubated at room temperature for 15 minutes. […] At this point, the substrate mixture is mixed with 0.1% avidin-coated polystyrene particles. After 15 minutes, the fluorescence values are measured following filtration and washing of the beads. Ki values are then calculated.

| Compound | Ki [nM] |
| --- | --- |
| CNC(=O)[C@@H](NC(=O)Nc1n[nH]c(=S)s1)[C@@H](C)OCc1ccccc1 [Example 66, 2-[[[(4,5-Dihydro-5-thioxo-1,3,4-thiadiazol-2-yl)amino]carbonyl]amino]-N-methyl-3-(phenylmethoxy)-(2S)-butanamide] | 760 |
| COC(=O)[C@H](COC(C)(C)C)NC(=O)Nc1n[nH]c(=S)s1 [Example 67, N-[[(4,5-Dihydro-5-thioxo-1,3,4-thiadiazol-2-yl)amino]carbonyl]-O-(1,1-dimethylethoxy)-L-serine methyl ester] | 6700 |
| CNC(=O)[C@@H](NC(=O)Nc1n[nH]c(=S)s1)[C@@H](C)OC(C)(C)C [Example 75, 2-[[[(4,5-Dihydro-5-thioxo-1,3,4-thiadiazol-2-yl)amino]carbonyl]amino]-3-(1,1-dimethylethoxy)-N-methyl-(S)-butanamide] | 670 |
